Test results reported in US20240390581A1, “METHOD AND APPARATUS FOR A STEADY STATE INT[…] OF SEROTONERGIC DRUGS” (PSOULMED, LLC, priority 2021, published 2024).

What was measured:
[1] = Transfer rate constants of the Gallimore-Strassman two-compartment model, calculated from G-S Table 2; parameters: species or system human
Excerpt: For consistency with the G-S model, referred to here as FIG. 1 is the (prior art) model from the 2016 paper by Gallimore Strassman (prior art), where: • k10 rate of elimination from the central compartment (min^−1) • k12 transfer rate from central to peripheral compartment (min^−1) • T same as k12 • k21 transfer rate from peripheral to central compartment (min^−1) • K1e transfer rate from central compartment to effect site (min^−1) • Ke0 rate of elimination of drug from the effect site (min^−1) E same as ke0 • CT plasma concentration (mg/ml) • RT rate at which drug reaches the effect site (mg/min) • [C] DMT concentration in the central compartment (mg/ml) • [P] DMT concentration in the peripheral compartment (mg/ml) […].
It should be appreciated that the notation used in the prior art (G-S) is very different from the notation used herein in developing the models in the present disclosure. In G-S (p. 5), E is used for the elimination rate, without it being made clear if this is the elimination rate from the effect site or from the central compartment. Also, T is used interchangeably with k12 from G-S FIG. 1. The extra parameters in G-S Table 2, Vc (L), Vp (L), Km (mg/L), Vm (mg/min), Q12 (L/min) are not defined, modulo a minor footnote (bottom of p. 4) stating that:

[2] = system: subject; assay: Intramuscular bolus plus infusion of DMT, subject-reported effects; type: in vivo, human
Experimental: In intramuscular infusion, the muscle is first loaded which then diffuses into the peripheral soft tissues, the lymphatics and blood, and then the CNS. The result is a very gentle rise in effect, with the earliest effects usually noticed within the first 2 minutes, and the subject experiencing threshold effects somewhere between 5 and 15 minutes. The intensification of the experience is slow, and while there is some overshoot, it is quite manageable, and usually lasts for only minutes. The key here is turning the pump off when the ideal state is reached, or at the earliest sign of being above the ideal level and reporting when those levels have been achieved.
The same assumptions for IV infusion are made with IM infusion, a 75 kg individual who identifies smoking 25 mg of DMT as an ideal dose. A muscle should be chosen for access with the infusion needle. While any muscle will work, the most favorable option is probably the anterolateral thigh. This allows the patient to be positioned supine comfortably. If the anterolateral thigh is chosen, appropriate garments should be worn by the patient to expose the thigh in a manner that is suitable for access. […]
When the subject is ready, the bolus dose is administered over a short amount of time, preferably about 60 seconds, from time t=0 to t=1 minute. […]

[3] = system: infusion veins; assay: Venous response to intravenous administration of DMT; type: in vivo
Excerpt: A second, and perhaps more serious issue, with the Gallimore Strassman paper is the administration of DMT intravenously. […] This is especially true of serotonergic drugs which, as noted, can be phlebitic at the site of administration. This in combination with probable chemical irritation, even with iso-osmolar concentrations buffered to a physiologic pH (using DMT fumarate or similar salt), intravenous thrombophlebitis can occur at a rate

[4] = system: humans; details: cited from earlier work
[5] = system: humans; details: IV single bolus; cited from earlier work
[6] = cited from earlier work
[7] = higher dose, 0.4 mg/kg bolus (G-S FIG. 2A); cited from earlier work
[8] = system: subject; details: believed, not measured; cited from earlier work
[9] = system: vein; assay: Additives to the intravenous DMT infusion, flow rate and venous injury; type: in vivo; details: magnesium 0.1 mg/mL to 100 mg/mL in DMT infusion or maintenance line
Excerpt: In this respect, the inventors addressed the following goals: • 1. […] A method for combining goals 1 and/or 2 with nitroglycerine ointment on the vein to be cannulated prior to gaining intravenous access, which improves vein patency and dilution from blood flow as well as normal saline. • 4. A method for creating an injectable form of a DMT salt such as fumarate, or freebase DMT in a solution or suspension or emulsion in an iso-osmolar or near iso-osmolar carrier such as hyaluronic acid or polyethylene glycol, as to minimize molecular interaction with the walls and endothelium of the peripheral vasculature, while maintaining water soluble or miscible properties as to not adversely affect the pharmacokinetics. • 5. A method for utilizing goal 4, with any other drug or substance that may cause venous irritation, to minimize the risk of thrombophlebitis, such as nanoparticles or crystals in suspension, or similarly, chemotherapeutic drugs, anesthetic agents and the like.

[10] = inhaling vaporized or smoked DMT, or single IV bolus

SMILES	k12, transfer rate from central to peripheral compartment ([1]; 0.2 mg/kg) [min⁻¹]	k21, transfer rate from peripheral to central compartment ([1]; 0.2 mg/kg) [min⁻¹]	k12, transfer rate from central to peripheral compartment ([1]; 0.4 mg/kg) [min⁻¹]	k21, transfer rate from peripheral to central compartment ([1]; 0.4 mg/kg) [min⁻¹]	time to earliest drug effects [2] [min]	time for drug effects to fully abate after pump is turned off ([2]; pump off)	venous effects of intravenous administration [3]	duration of experience [4, 10] [min]	time of peak experience [4, 10]	effect of oral ingestion ([4]; oral ingestion, rapid metabolism by monoamine oxidase)	onset of psychological effects [5]	time by which psychological effects were almost completely resolved [5] [minutes]	time of peak psychological effects [5] [seconds]	biological half-life ([6]; in vivo)	half-life of injected DMT ([6]; injected)	blood concentration [7] [ng/mL]	CNS concentration equating to a full experience [8]	CNS concentration equating to a threshold experience [8]	effect on venous injury [9]
CN(C)CCc1c[nH]c2ccccc12 [DMT, N,N-dimethyltryptamine]	0.3286	0.2	0.6021	0.1647	≤ 2	within about an hour or less	causing vasoconstriction, phlebitis and eventual closing of the infusion veins	10 to 15	around 5 minutes	virtually no effect	almost immediately after administration	≤ 30	90 to 120	in the range of minutes	about 15 minutes	100	roughly 100 ng/ml	roughly 60 ng/ml	
[Mg+2] [magnesium]																			decrease venous injury
